The text below walks through data of US12534429B2, “Heterodimers of glutamic acid” (Molecular Insight Pharmaceuticals, Inc., priority 2006, dated 2026).

The target of data set [1] is T1, PSMA on LNCaP cells (Homo sapiens, UniProt Q04609).
T1 construct: LNCaP human prostate cancer cells were obtained from American Type Culture Collection; host or cells: LNCaP human prostate cancer cells
Nature of the data set: In vitro cell binding: competition with I-131 DCIT for binding to PSMA on LNCaP cells. The settings on record: for IC50: LNCaP cells, 3 nM I-131 DCIT, 1 hour, read-out: IC50 (nM), in vitro cell binding data; for pIC50: LnCap cells, dose curves. As for the experimental part: In vitro cold screening assays verses I-131 DCIT. LNCaP and PC3 human prostate cancer cells were obtained from American Type Culture Collection, Rockville, MD LNCaP cells were maintained in RPMI-1640 medium supplemented with 10% fetal bovine serum (FBS). PC3 cells were grown in F12K medium supplemented with 10% FBS. Binding of the radiolabeled compound and competition with cold derivatives to LNCaP and PC-3 cells was performed according to the methods of Tang et al. (Tang, H.; Brown, M.; Ye, Y.; Huang, G.; Zhang, Y.; Wang, Y.; Zhai, H.; Chen, X.; Shen, T. Y.; Tenniswood, M., Prostate targeting ligands based on N-acetylated alpha-linked acidic dipeptidase, Biochem. Biophys. Res. Commun. 2003, 307, 8-14) with appropriate modifications. Cells were plated in 12-well plates at approximately 4×10^5 cells/well and incubated for 48 hours in a humidified incubator at 37° C./5% carbon dioxide prior to addition of compound. Each unique SAAC-urea-Glu conjugate was prepared and diluted in serum-free cell culture medium containing 0.5% bovine serum albumin (BSA) in combination with 3 nM I-131 DCIT (known inhibitor). Total binding was determined by incubating I-131 DCIT without test compound. Plates were incubated at room temperature for 1 hour. Cells were removed from the plates by gently pipeting and transferred to eppendorff tubes. Samples were microcentrifuged for 15 seconds at 10K×g. The medium was aspirated and the pellet was washed twice by dispersal in fresh assay medium followed by microcentrifugation. Cell binding of I-131 DCIT was determined by counting the cell pellet in an automated gamma counter. […] The control compounds are depicted below.
The ability of non-radioactive analogs to compete with ^131I-DCIT for binding to PSMA was tested in the PSMA positive human prostate cancer cell line, LNCaP cells. LNCaP cells (300,000 cells/well) were incubated for 1 hour with 3 nM [^131I]-DCIT in the presence of 1-10,000 nM MIP-1072 in RPMI-1640 medium supplemented with 0.5% bovine serum albumin, then washed and counted in a gamma counter. All documents cited in this specification including patent applications are incorporated by reference in their entirety.

Data set [2] relates to LnCap cells. As to the kind of experiment: Direct binding of radiolabeled DCIT to PSMA-positive LnCap cells. The arrangement: species or system human. The settings on record: counts displaceable by nonradiolabeled compound or PMPA. As for the experimental part:
(§1) The histograms show the mean f SEM, each experiment was performed in duplicate.
(§2) In vitro cold screening assays verses I-131 DCIT. LNCaP and PC3 human prostate cancer cells were obtained from American Type Culture Collection, Rockville, MD LNCaP cells were maintained in RPMI-1640 medium supplemented with 10% fetal bovine serum (FBS). PC3 cells were grown in F12K medium supplemented with 10% FBS. Binding of the radiolabeled compound and competition with cold derivatives to LNCaP and PC-3 cells was performed according to the methods of Tang et al. (Tang, H.; Brown, M.; Ye, Y.; Huang, G.; Zhang, Y.; Wang, Y.; Zhai, H.; Chen, X.; Shen, T. Y.; Tenniswood, M., Prostate targeting ligands based on N-acetylated alpha-linked acidic dipeptidase, Biochem. Biophys. Res. Commun. 2003, 307, 8-14) with appropriate modifications. […] Total binding was determined by incubating I-131 DCIT without test compound. […] Cell binding of I-131 DCIT was determined by counting the cell pellet in an automated gamma counter. […]
(§3) (ii) In vitro dose screening. […] Binding constants were determined by incubating LnCap cells with various amounts of nonradiolabeled DCIT in the presence of a constant amount of I-131 DCIT and dividing by the specific activity of each solution to determine the number of fmoles compound bound (FIG. 6).

The test system of data set [3] is PC3 cells. As to the kind of experiment: Direct binding of radiolabeled DCIT to PSMA-negative PC3 cells. Details: species or system human. On the procedure: as §1, §2, §3
Data set [4] can be described thus: Stability of iodine-131 labeled compounds in solution (HPLC). It counts as physicochemical. As for the experimental part:
FIG. 4A-4D are radio-HPLC chromatograms of I-131 MIP 1072 purified; at 3 days in A) DMSO. B) 3% genstisate-6% Ascorbate/Ascorbic acid, C) PBS, pH=7.2, D) 10% Ethanol in Saline at 37° C.
The stability of the radiolabeled compound in solution was determined as a function of time. Specifically, after radiolabeling and isolation, the product was stored at room temperature for 48 h after which HPLC analysis was performed to check for degree of label retention, as well as potential product degradation. The reformation of NaI and the presence of the reduced iodates was analyzed.
The stability of the radiolabeled compound in solution was determined as a function of time. Specifically, after radiolabeling and isolation, the product was stored at 37° C. for 3 days after which HPLC analysis was performed to check for degree of label retention, as well as potential product degradation. The reformation of NaI and the presence of the reduced iodates was analyzed.

Data set [5] addresses PSMA (LnCap cells) (Homo sapiens, UniProt Q04609). Nature of the data set: Scatchard analysis in PSMA cellular binding assay (nonradiolabeled DCIT with I-131 DCIT). As for the experimental part: FIG. 6 is Scatchard Analysis in PSMA Cellular Binding Assay with cold 2-{3-[1-Carboxy-2-(4-hydroxy-phenyl)-ethyl]-ureido}-pentanedioic acid (DCT).
as §3

[6] abbreviates: read-out: IC-50 versus I-131 DCIT.
Setting [7] is: read-out: IC50 values versus I-131 DCIT.

pIC50, pKd: −log10 of the molar value. Like-named read-outs stand apart in the source and are kept apart here. Where only a bound is given, the exact number is not on record here.

T1 sequence (Q04609 whole entry): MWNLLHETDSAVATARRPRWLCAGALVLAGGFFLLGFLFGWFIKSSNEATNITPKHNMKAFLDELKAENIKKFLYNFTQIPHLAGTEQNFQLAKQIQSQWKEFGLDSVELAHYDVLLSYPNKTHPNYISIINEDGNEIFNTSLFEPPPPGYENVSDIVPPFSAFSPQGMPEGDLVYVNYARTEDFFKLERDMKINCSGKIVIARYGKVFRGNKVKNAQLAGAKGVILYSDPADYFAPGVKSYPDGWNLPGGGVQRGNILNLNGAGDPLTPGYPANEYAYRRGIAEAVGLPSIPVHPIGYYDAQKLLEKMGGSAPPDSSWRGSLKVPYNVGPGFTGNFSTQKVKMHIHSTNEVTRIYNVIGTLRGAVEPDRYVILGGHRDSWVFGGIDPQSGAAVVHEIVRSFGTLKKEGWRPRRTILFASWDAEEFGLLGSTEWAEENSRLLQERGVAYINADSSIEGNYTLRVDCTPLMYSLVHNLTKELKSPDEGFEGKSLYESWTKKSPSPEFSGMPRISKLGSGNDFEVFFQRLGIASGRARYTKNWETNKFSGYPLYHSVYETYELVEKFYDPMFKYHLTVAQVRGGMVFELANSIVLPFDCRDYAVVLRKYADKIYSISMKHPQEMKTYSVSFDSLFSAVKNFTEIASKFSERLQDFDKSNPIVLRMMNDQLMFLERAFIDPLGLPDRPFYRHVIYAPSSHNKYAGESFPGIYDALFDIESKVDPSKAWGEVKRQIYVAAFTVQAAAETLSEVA
PSMA (LnCap cells), sequence (Q04609 whole entry): as above

Regarding `O=C(O)CC[C@H](NC(=O)N[C@@H](CCCCNCc1ccccc1Cl)C(=O)O)C(=O)O` [MIP-1137, (S, S)-2-{3-[1-Carboxy-5-(2-chloro-benzylamino)-pentyl]-ureido}-pentanedioic], the IC50 (usually the concentration at which inhibition is half-maximal) in data set [1] came to 245 nM.

Turning to `O=C(O)CC[C@H](NC(=O)N[C@@H](Cc1ccc(O)c([123I])c1)C(=O)O)C(=O)O` [I-123 DCIT], in data set [2], the “specific binding to LnCap cells” value is on record as “bound specifically”. Besides, in data set [3], the “specific binding to PC3 cells” value was “not PC3 cells”.

With “[Re(CO)3{(17R,21S)-11,19-dioxo-1-([…]yridine-2-yl)-2-([…]yridine-2-ylmethyl)-5,8-dioxa-2,12,18,20-tetraazatricosane-17,21,23-tricarboxylic acid}][Br] [MIP-1133]”, the IC50 in data set [1] turned out to be 227 nM.

Consider `O=C(O)CC[C@H](NC(=O)NC(CCCCNCc1ccccc1)C(=O)O)C(=O)O` (stereo in doubt) [MIP-1106, (S)-2-(3-((R)-5-(benzylamino)-1-carboxypentyl)ureido)pentanedioic acid], for which the IC50 in data set [1] was found to be 2960 nM.

As to `O=C(O)CC[C@H](NC(=O)N[C@@H](CCCCNCc1cccc2ccccc12)C(=O)O)C(=O)O` [MIP-1108, (S)-2-(3-((R)-1-carboxy-5-([…]yridine[…]ne-1-ylmethylamino)pentyl)ureido)pentanedioic acid], the IC50 in data set [1] worked out at 154 nM.

`O=C(O)CC[C@H](NC(=O)N[C@@H](CCCCN(Cc1ccccn1)Cc1ccccn1)C(=O)O)C(=O)O` [MIP 1008, (S, S)-2-{3-[5-(Bis-pyridin-2-ylmethyl-amino)-1-carboxy-pentyl]-ureido}-pentanedioic acid]: the pIC50 in data set [1] (setting [6]) is 7.01. The “competition with I-131 DCIT for binding to LnCap cells” value (“competition with I-131 DCIT” below) in data set [1] (screen at 2 uM test compound) was “competed”.

Turning to `O=C(O)CC[C@H](NC(=O)N[C@@H](CCN(Cc1ccccn1)Cc1ccccn1)C(=O)O)C(=O)O` [MIP 1028, (S, S)-2-{3-[3-(Bis-pyridin-2-ylmethyl-amino)-1-carboxy-propyl]-ureido}-pentanedioic acid], in data set [1] (screen at 2 uM test compound), the “competition with I-131 DCIT” value is recorded as “did not compete”.

For `O=C(O)CC[C@H](NC(=O)N[C@@H](CCCCNCc1ccc(Cl)cc1)C(=O)O)C(=O)O` [MIP 1135, (S, S)-2-{3-[1-Carboxy-5-(4-chloro-benzylamino)-pentyl]-ureido}-pentanedioic], in data set [1], the IC50 stood at 2 nM.

As for `O=C(O)CC[C@H](NC(=O)N[C@@H](Cc1ccc(O)c(I)c1)C(=O)O)C(=O)O` [I-131 DCIT, N—[N—[(S)-1,3-dicarboxypropyl]carbamoyl]-S-3-iodo-L-tyrosine], the “specific binding to LnCap cells” value in data set [2] is recorded as “bound specifically”. Moreover, the “labeling stability (degradation)” value in data set [4] (out to 2 days at room temperature) is listed as “no significant degradation”. Also, the “specific binding to PC3 cells” value in data set [3] is recorded as “not PC3 cells”.

Regarding “[Re(CO)3{(35R,39S)-29,37-dioxo-1-([…]yridine-2-yl)-2-([…]yridine-2-ylmethyl)-5,8,11,14,17,20,23,26-octaoxa-2,30,36,38-tetraazahentetracontane-35,39,41-tricarboxylic acid}][Br] [MIP-1132]”, the IC50 in data set [1] was determined as 1750 nM.

With `O=C(O)CC[C@H](NC(=O)N[C@@H](Cc1ccc(O)c(I)c1)C(=O)O)C(=O)O` [DCIT, N—[N—[(S)-1,3-dicarboxypropyl]carbamoyl]-S-3-iodo-L-tyrosine], in data set [5], the Bmax turned out to be 254 fmol and the pKd (as a rule, −log10 of the Kd, conventionally taken in molar units) is 6.58.

For the compound `O=C(O)CC[C@H](NC(=O)N[C@@H](CCCCNC(=O)Nc1ccc(I)cc1)C(=O)O)C(=O)O` [MIP 1095, 2-(3-{1-Carboxy-5-[3-(4-iodo-phenyl)-ureido]-pentyl}-ureido)-pentanedioic acid], the IC50 in data set [1] is 10 nM. Further, the pIC50 in data set [1] (setting [7]) was over 7.30.

On to `O=C(O)CC[C@H](NC(=O)N[C@@H](CCCCNC(=O)Nc1ccccc1)C(=O)O)C(=O)O` (stereo in doubt) [MIP 1111, 2-(3-{1-Carboxy-5-[3-(phenyl)-ureido]-pentyl}-ureido)-pentanedioic acid], for which the IC50 in data set [1] was determined as 12 nM.

For `O=C(O)CC[C@H](NC(=O)N[C@@H](CCCCNC(=O)CCCCCCCCCCN(Cc1ccc(I)cc1)Cc1ccc(I)cc1)C(=O)O)C(=O)O` [MIP-1130, (19S,23S)-2-(4-iodobenzyl)-1-(4-iodophenyl)-13,21-dioxo-2,14,20,22-tetraazapentacosane-19,23,25-tricarboxylic acid], the IC50 in data set [1] worked out at 300 nM.

For the compound `O=C(O)CC[C@H](NC(=O)N[C@@H](CCCCNCc1cccc(Cl)c1)C(=O)O)C(=O)O` [MIP 1131, (S, S)-2-{3-[1-Carboxy-5-(3-chloro-benzylamino)-pentyl]-ureido}-pentanedioic], the IC50 in data set [1] turned out to be 277 nM.

Consider “[Re(CO)3{(19R,23S)-13,21-dioxo-2-([…]yridine-2-ylmethyl)-2,14,20,22-tetraazapentacosane-1,19,23,25-tetracarboxylic acid}] [MIP-1109]”, for which the IC50 in data set [1] is 696 nM.

With `O=C(O)CC[C@H](NC(=O)N[C@@H](CCCCNC(=O)Nc1ccc(Cl)cc1)C(=O)O)C(=O)O` [MIP 1110, 2-(3-{1-Carboxy-5-[3-(4-chloro-phenyl)-ureido]-pentyl}-ureido)-pentanedioic acid], the IC50 in data set [1] amounted to 4 nM.

Regarding `O=C(O)CC[C@H](NC(=O)N[C@@H](CCCCNC(=O)NCc1cccc(I)c1)C(=O)O)C(=O)O` [MIP-1101, 2-(3-{1-Carboxy-5-[3-(3-iodo-benzyl)-ureido]-pentyl}-ureido)-pentanedioic acid], in data set [1], the IC50 is 10 nM.

With “[Re(CO)3(2-{3-[5-(Bis-pyridin-2-ylmethyl-amino)-1-carboxy-pentyl]-ureido}-pentanedioic acid)][Br] [MIP 1029]”, the “competition with I-131 DCIT” value in data set [1] was “did not compete”.

In the case of `O=C(O)CC[C@H](NC(=O)N[C@@H](CCCCNCc1ccc([131I])cc1)C(=O)O)C(=O)O` [I-131 1072], the “stability by radio-HPLC” value in data set [4] (3 days at 37° C. in DMSO, gentisate/ascorbate, PBS pH 7.2, 10% ethanol in saline) was “remained stable”. The “labeling stability (degradation)” value in data set [4] (out to 3 days at room temperature in DMSO, 10% ethanol/saline, PBS pH 7.2, 6% ascorbate/3% gentisic acid) is reported as “no significant degradation”.

As to `O=C(O)CC[C@H](NC(=O)N[C@@H](CCCCNS(=O)(=O)c1ccc(I)cc1)C(=O)O)C(=O)O` [MIP 1097, 2-{3-[1-carboxy-5-(4-iodo-benzenesulfonylamino)-pentyl]-ureido}-pentanedioic acid], in data set [1] (setting [7]), the pIC50 is over 7.30.

For the compound `NCCCC[C@H](NC(=O)N[C@@H](CCC(=O)O)C(=O)O)C(=O)O` [MIP 1033, (S, S)-2-[3-(5-Amino-1-carboxy-pentyl)-ureido]-pentanedioic acid], in data set [1], the IC50 was determined as 498 nM. Moreover, in data set [1] (setting [6]), the pIC50 is 6.30. Besides, the “competition with I-131 DCIT” value in data set [1] (screen at 2 uM test compound) is “competed”.

As for `O=C(O)CC[C@H](NC(=O)N(Cc1ccccn1)Cc1ccccn1)C(=O)O` [MIP 1025, (S)-2-(3,3-Bis-pyridin-2-ylmethyl-ureido)-pentanedioic acid], in data set [1] (screen at 2 uM test compound), the “competition with I-131 DCIT” value was “did not compete”.
